The NIST ThermoML archive (doi:10.1016/j.tca.2005.12.008)
± gives the expanded uncertainty stated by the source.

Assay: molar heat capacity at constant pressure
Conditions: 101.33 kPa, Crystal, Small (less than 1 g) adiabatic calorimetry

O.O=C([O-])[C@H](O)[C@@H](O)CO.O=C([O-])[C@H](O)[C@@H](O)CO.[Cu+2] [copper(II) (2R,3S)-2,3,4-trihydroxybutanoate hydrate]
Conditions | molar heat capacity at constant pressure [J/K/mol]
77.95 K | 157.12 ± 1.1
78.77 K | 158.43 ± 1.1
79.58 K | 159.75 ± 1.1
81.05 K | 161.91 ± 1.2
83.23 K | 165.7 ± 1.2
85.3 K | 168.87 ± 1.2
87.33 K | 172.05 ± 1.2
89.3 K | 175.55 ± 1.3
91.24 K | 178.89 ± 1.2
93.14 K | 182.28 ± 1.3
95.01 K | 185.29 ± 1.3
96.85 K | 188.44 ± 1.3
98.65 K | 191.21 ± 1.3
100.44 K | 194.62 ± 1.4
102.18 K | 197.16 ± 1.4
103.92 K | 200.13 ± 1.4
105.63 K | 203.01 ± 1.4
107.32 K | 205.34 ± 1.4
109 K | 207.51 ± 1.4
110.66 K | 210.17 ± 1.5
112.29 K | 213.09 ± 1.5
113.91 K | 215.33 ± 1.5
115.53 K | 217.99 ± 1.5
117.12 K | 220.64 ± 1.5
118.7 K | 222.67 ± 1.5
120.28 K | 224.56 ± 1.6
121.83 K | 227.52 ± 1.6
123.37 K | 230.1 ± 1.6
124.9 K | 231.86 ± 1.6
127.77 K | 236.46 ± 1.6
132.03 K | 242.38 ± 1.7
136.29 K | 248.21 ± 1.7
140.39 K | 253.18 ± 1.7
144.49 K | 258.87 ± 1.8
148.5 K | 263.42 ± 1.8
152.44 K | 269.25 ± 1.9
156.37 K | 273.65 ± 1.9
160.22 K | 278.91 ± 1.9
163.99 K | 283.6 ± 1.9
167.76 K | 289.57 ± 2
171.53 K | 294.4 ± 2
175.22 K | 298.81 ± 2
178.91 K | 303.93 ± 2.1
182.51 K | 308.62 ± 2.1
186.04 K | 314.59 ± 2.1
189.63 K | 319.74 ± 2.2
193.17 K | 324.58 ± 2.2
196.61 K | 329.37 ± 2.2
200.05 K | 333.92 ± 2.3
203.48 K | 338.93 ± 2.3
206.76 K | 344.03 ± 2.4
210.14 K | 349.72 ± 2.4
213.41 K | 353.68 ± 2.4
216.7 K | 358.82 ± 2.4
219.87 K | 365.27 ± 2.5
223.07 K | 370.33 ± 2.5
226.27 K | 374.9 ± 2.5
229.39 K | 380.28 ± 2.6
232.43 K | 385.56 ± 2.6
235.45 K | 390.94 ± 2.7
238.48 K | 396.17 ± 2.7
241.43 K | 401.58 ± 2.7
244.3 K | 406.42 ± 2.8
247.25 K | 410.96 ± 2.8
250.17 K | 415.09 ± 2.8
253.07 K | 420.05 ± 2.9
255.94 K | 424.32 ± 2.9
258.81 K | 430.57 ± 2.9
261.59 K | 435.83 ± 3
264.38 K | 439.95 ± 3
267.25 K | 446.35 ± 3
269.95 K | 449.9 ± 3
272.74 K | 455.45 ± 3.1
275.44 K | 460.56 ± 3.1
278.15 K | 465.27 ± 3.1
280.87 K | 471.63 ± 3.2
283.46 K | 476.96 ± 3.2
286.11 K | 481.85 ± 3.3
288.64 K | 486.29 ± 3.3
291.26 K | 492.12 ± 3.3
293.8 K | 496.38 ± 3.4
296.18 K | 501.64 ± 3.4
298.72 K | 506.76 ± 3.4
301.34 K | 511.59 ± 3.5
304.73 K | 517.6 ± 3.5
308.01 K | 525.08 ± 3.5
311.68 K | 533.37 ± 3.6
315.35 K | 539.96 ± 3.6
318.3 K | 546.62 ± 3.7
321.22 K | 553.21 ± 3.7
324.17 K | 560.99 ± 3.8
327.09 K | 567.58 ± 3.8
330.19 K | 573.7 ± 3.9
333.38 K | 581.34 ± 3.9
336.12 K | 586.57 ± 4
338.87 K | 593.18 ± 4
341.62 K | 602.58 ± 4.1
344.26 K | 609.21 ± 4.1
346.73 K | 617.4 ± 4.2
349.06 K | 625.08 ± 4.2
351.28 K | 633.61 ± 4.3
353.44 K | 639.41 ± 4.3
355.51 K | 652.09 ± 4.4
